In US12201634B2, “Methods of treating depression using orexin-2 receptor antagonists” (Janssen Pharmaceutica NV, priority 2016, dated 2025):

Tests used:
[1] = system: subjects with a diagnosis of MDD; test: HDRS17 / HAM-D6 depression ratings, diphenhydramine and placebo-controlled study (Example 2); assay type: in vivo, human; details: for Mean HAM-D6, change from baseline / mean HDRS17 anxiety/somatization factor score, change from baseline / Mean Adjusted HDRS17 (sleep items removed), change from baseline / Total HDRS17 mean score, change from baseline: Day 11; for Mean Adjusted HDRS17 (sleep items removed), change from baseline / Total HDRS17 mean score, change from baseline: q.d. in the evening
Source text: (§1) Men and women with a diagnosis of MDD between the ages of 18 and 64, inclusive, were enrolled.
(§2) (once daily) in the evening over 10 days for women of child bearing potential (WOCBP) or 4 weeks for males and women of non-child bearing potential (WONCBP). […] Males and WONCBP took 1 capsule every evening just before bedtime from Day 1 to Day 28. WOCBP took 1 capsule every evening just before bedtime from Day 1 to Day 10. There were 2 follow up visits occurring at 3 and 14 days.
(§3) For the evaluation of symptoms of depression, assessments were done at screening and during the study. Specifically, symptoms of depression were performed using the Mini International Neuropsychiatric Interview (MINI) 6.0 interview, or Hamilton rating scale for Depression-17 (HDRS17). Also, polysomnography (PSG) was performed to quantify sleep stages including latency to persistent sleep (LSP) and total sleep time (TST). Thereafter, symptoms of depression were taking on days 11 and 29 during treatment and days 3 and 14 following treatment. PSG was recorded overnight after the first and tenth dose administration of study medication.
A HDRS17 total score was calculated by summing the 17 item scores taken during the study. A HDRS17 total score ranges from 0 to 52, with higher scores indicating greater severity of depression. In order to correct for a possible effect of study medication on sleep, sleep-related items were removed from the HDRS17 to calculate a (sleep item)-adjusted HDRS. Accordingly, an adjusted HDRS17 total score was calculated by summing the item scores excluding the 3 insomnia questions (4-Insomnia Early, 5-Insomnia Middle and 6-Insomnia Late). A HDRS17 adjusted total score ranges from 0 to 46. A 6-item subscale from the HDRS17 (HAM-D6) was analyzed and provided information to core depressive symptoms and is sensitive to treatment response. The six items included depressed mood, guilt feelings, work and interests, psychomotor retardation, psychic anxiety, and general somatics (tiredness and pains).
The HAM-D6 score was calculated by summing the 6 items scores, and ranges from 0 to 22. Higher scores indicate greater severity of core symptoms.

[2] = system: subjects with a diagnosis of MDD; test: Polysomnography (TST, LPS) in MDD study (Example 2); assay type: in vivo, human; details: for LPS compared to placebo / TST compared to placebo: overnight on Day 1/2
Source text: as §1, §2, §3
The effects of study medication on polysomnography (PSG)-derived parameters was evaluated overnight on Days 1/2 and 10/11. In addition, PSG was recorded up to and following a forced wake overnight on Day 5/6. Two screening PSG recordings were made and baseline values were calculated as the average values recorded at Screening 1 and 2.
TST is defined as total minutes spent in rapid eye movement (REM) and non-REM sleep.
LPS is defined as the elapsed time (in minutes) from lights out to 10 minutes of continuous sleep.

[3] = system: subjects diagnosed with MDD; test: HDRS17 / HAM-D6 ratings, Group 2 adjunctive to antidepressant (Example 3); assay type: in vivo, human
Experimental: (§4) Specifically, Compound A was administered to subjects diagnosed with MDD (i) as a monotherapy and (ii) in combination with a known anti-depressant and the symptoms of depression of the subjects evaluated using the HDRS17 and HAM-D6 scale
(§5) Each subject in Group 2 also took an amount of antidepressant selected from duloxetine, citalopram, paroxetine, or sertraline and as prescribed by their attending physician. For the evaluation of symptoms of depression for both groups, assessments were independently performed at screening and on Day 11, i.e., one day after the study, using HDRS17 and HAM-D6 as described in Example 2. In Tables 11-12, # denotes the Cohen effect size, * denotes P<0.05 (statistically significant), and ** denotes P<0.01.

[4] = system: subjects diagnosed with MDD; test: HDRS17 / HAM-D6 ratings, Group 1 monotherapy (Example 3); assay type: in vivo, human
Experimental: as §4, §5

[5] = target: T1, orexin-2 receptor (Homo sapiens, UniProt O43614); test: Orexin-2 receptor antagonism (statement); details: orally active
T1 sequence (O43614 1-444): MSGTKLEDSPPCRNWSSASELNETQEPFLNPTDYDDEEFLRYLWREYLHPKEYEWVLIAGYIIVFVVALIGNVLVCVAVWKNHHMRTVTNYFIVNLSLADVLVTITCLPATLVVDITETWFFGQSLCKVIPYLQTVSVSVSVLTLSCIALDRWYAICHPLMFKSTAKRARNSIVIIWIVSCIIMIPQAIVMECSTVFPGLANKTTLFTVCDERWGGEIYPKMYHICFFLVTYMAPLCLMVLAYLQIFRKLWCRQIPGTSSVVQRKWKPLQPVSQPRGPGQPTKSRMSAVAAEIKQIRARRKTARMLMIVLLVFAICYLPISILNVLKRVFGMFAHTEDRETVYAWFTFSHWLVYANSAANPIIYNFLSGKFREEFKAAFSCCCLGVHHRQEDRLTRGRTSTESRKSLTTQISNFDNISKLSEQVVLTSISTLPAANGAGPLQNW

[6] = Posology: plasma pharmacokinetics after oral 20 mg and repeated nighttime administration (Example 2); assay type: in vivo, human
Experimental: Blood and saliva were collected for the assessment of biomarkers, among others. Venous blood samples (3 mL each) were collected in fasting condition between 8:00 and 10:00 am for the determination of [5(4,6-dimethyl-pyrimidin-2-yl)-hexahydro-pyrrolo[3,4-c]pyrrol-2-yl]-(2-fluoro-2-[1,2,3]triazol-2-yl-phenyl)-methanone plasma concentrations and biomarkers related to immune system activity, Hypothalamus pituitary adrenal (HPA) axis activation, neurotropic factors and metabolic factors were measured. Pharmacokinetic (PK) blood samples also were collected. Plasma samples were analyzed to determine concentrations of Compound A using LC-MS/MS. Saliva was collected for the measurement of concentrations of cortisol. Saliva concentrations of cortisol were added as a biomarker.
as §2
The magnitude of the effect of Compound A on LPS and TST is directly related to level of insomnia at baseline. See, FIGS. 12-15.

[7] = Plasma pharmacokinetics after single 20 mg oral dose of suspension or tablet formulation (Example 1); assay type: in vivo, Human
Experimental: This example was performed to determine the plasma pharmacokinetic (PK) and bioavailability of a solid dose formulation of [5(4,6-dimethyl-pyrimidin-2-yl)-hexahydro-pyrrolo[3,4-c]pyrrol-2-yl]-(2-fluoro-2-[1,2,3]triazol-2-yl-phenyl)-methanone (Compound A) after single dose tablet administration relative to a suspension formulation. Also addressed are the effect of a semi-fasted condition on the rate and extent of bioavailability of the solid dose formulation and tolerability of the solid and oral suspension formulations.
During each treatment period, blood samples were collected for PK measurements. Specifically, venous blood samples of 3 mL each were collected for determination of Compound plasma concentrations. The following plasma Compound A PK parameters were estimated using the actual times of blood sampling: • Cmax peak plasma concentration. • tmax time to reach the peak plasma concentration. • AUClast area under the plasma concentration-time curve from 0 to t hours post study drug dosing, calculated by trapezoidal summation (time t is the time of the last quantifiable concentration Clast). • AUC∞ AUClast extrapolated to infinity, calculated as AUClast+Clast/λz. • λz elimination rate constant, determined by linear regression of the terminal points of the ln-linear plasma concentration-time curve. • t1/2 terminal half-life, defined as 0.693/λz. • CL/F total clearance of drug after extravascular administration, uncorrected for absolute bioavailability, calculated as Dose/AUC∞. • Vd/F apparent volume of distribution after extravascular administration, uncorrected for absolute bioavailability.
Samples were prepared for testing using the following protocol: • (i) Plasma samples at room temperature were homogenized. • (ii) The samples were centrifuged for 5 minutes at about 2500×g and 20° C. • (iii) The plasma sample (50.0 μL) was pipetted into a 1.2 mL round well collection plate. • (iv) Stock Dilution Solvent (50.0 μL) was added to the blanks and the internal standard working solution was added to all other tube. […]

[8] = system: healthy subjects; test: Daytime administration in healthy subjects (statement); assay type: in vivo, human
[9] = system: subjects with insomnia disorder (ID); test: Nighttime administration in subjects with insomnia disorder (statement); assay type: in vivo, human
[10] = Group 2 (with antidepressant), Day 11

Question: Which “Mean HAM-D6, change from baseline” value [1] does the source give for CN(C)CCOC(c1ccccc1)c1ccccc1 [Diphenhydramine, diphenhydramine, reference compound] here?
Answer: −1.8

Question: What about the “mean HDRS17 anxiety/somatization factor score, change from baseline” value [1] of the same compound?
Answer: −0.9

Question: And the “Mean Adjusted HDRS17 (sleep items removed), change from baseline” value [1]?
Answer: −2.3

Question: What about the “Total HDRS17 mean score, change from baseline” value [1] of the same compound?
Answer: −4.1

Question: What about the “Latency to Persistent Sleep (LPS), change from baseline” value ([2]; Day 1/2) of the same compound?
Answer: 6.7 min

Question: And the “Total Sleep Time (TST), change from baseline” value ([2]; Day 1/2)?
Answer: 28.3 min

Question: And the “Latency to Persistent Sleep (LPS), change from baseline” value ([2]; Day 10/11)?
Answer: 0.3 min

Question: And the “Total Sleep Time (TST), change from baseline” value ([2]; Day 10/11)?
Answer: 33.92 min

Question: And the “LPS compared to placebo” value [2]?
Answer: modestly reduced LPS

Question: What about the “TST compared to placebo” value [2] of the same compound?
Answer: increased TST

Question: And the “Adjusted HDRS mean score (SD), change from baseline” value [3, 10]?
Answer: −3.5 (0.71)

Question: What about the “Anxiety-Somatization Factor mean score (SD), change from baseline” value [3, 10] of the same compound?
Answer: −1.5 (0.71)

Question: And the “HAM-D6 mean score (SD), change from baseline” value [3, 10]?
Answer: −2.0 (1.41)

Question: What about the “HDRS17 mean score (SD), change from baseline” value [3, 10] of the same compound?
Answer: −3.5 (0.71)

Question: And the “Adjusted HDRS mean score (SD), change from baseline” value ([4]; Group 1, Day 11)?
Answer: −2.1 (3.02)

Question: What about the “Anxiety-Somatization Factor mean score (SD), change from baseline” value ([4]; Group 1, Day 11) of the same compound?
Answer: −0.8 (1.17)

Question: What about the “HAM-D6 mean score (SD), change from baseline” value ([4]; Group 1, Day 11) of the same compound?
Answer: −1.7 (2.15)

Question: And the “HDRS17 mean score (SD), change from baseline” value ([4]; Group 1, Day 11)?
Answer: −4.2 (4.00)

Question: Which results are given for “[5(4,6-dimethyl-pyrimidin-2-yl)-hexahydro-pyrrolo[3,4-c]pyrrol-2-yl]-(2-fluoro-2-[1,2,3]triazol-2-yl-phenyl)-methanone [Compound A]”?
Answer: activity at orexin-2 receptor [5]: selective antagonist; antidepressant effect compared to placebo and diphenhydramine ([1]; 20 mg q.d. in the evening): larger and clinically relevant; Mean HAM-D6, change from baseline [1]: −3.8; mean HDRS17 anxiety/somatization factor score, change from baseline [1]: −1.6; Mean Adjusted HDRS17 (sleep items removed), change from baseline [1]: −4.5; Total HDRS17 mean score, change from baseline [1]: −5.5; antidepressant effect sustained after treatment discontinuation ([1]; after treatment discontinuation): at least 14 days; accumulation on repeated daily dosing ([6]; nighttime administration, 10 days daily): did not result in accumulation; half-life ([6]; oral 20 mg): 2 to 3 h; time to maximal plasma concentrations (Tmax) ([6]; oral 20 mg): < 1 h; mean t1/2 ([7]; 20 mg oral suspension, fasted): ~2 h; mean t1/2 ([7]; 20 mg tablet, fasting condition): ~5 h; mean t1/2 ([7]; 20 mg tablet, semi-fasted): ~2 h; somnolence [8]: induced somnolence; Latency to Persistent Sleep (LPS), change from baseline ([2]; Day 1/2): 8.7 min; Total Sleep Time (TST), change from baseline ([2]; Day 1/2): 30.9 min; Latency to Persistent Sleep (LPS), change from baseline ([2]; Day 10/11): 9.2 min; Total Sleep Time (TST), change from baseline ([2]; Day 10/11): 26.56 min; LPS compared to placebo [2]: modestly reduced LPS; TST compared to placebo [2]: increased TST; latency to persistent sleep (LPS) [9]: reduced; total sleep time (TST) [9]: prolongs; Adjusted HDRS Effect Size Compound A vs Placebo (Cohen effect size) [3, 10]: −1.06; Adjusted HDRS mean score (SD), change from baseline [3, 10]: −5.5 (1.29); Anxiety-Somatization Factor Effect Size Compound A vs Placebo (Cohen effect size) [3, 10]: −0.76; Anxiety-Somatization Factor mean score (SD), change from baseline [3, 10]: −1.8 (0.50); HAM-D6 Effect Size Compound A vs Placebo (Cohen effect size) [3, 10]: −1.49; HAM-D6 mean score (SD), change from baseline [3, 10]: −4.8 (1.50); HDRS17 Effect Size Compound A vs Placebo (Cohen effect size) [3, 10]: −0.37; HDRS17 mean score (SD), change from baseline [3, 10]: −7.0 (3.37); antidepressant efficacy as adjunctive therapy ([3]; antidepressant drug-treated subjects with MDD): has antidepressant efficacy; Adjusted HDRS Effect Size Compound A vs Placebo (Cohen effect size) ([4]; Group 1, Day 11): −0.93; Adjusted HDRS mean score (SD), change from baseline ([4]; Group 1, Day 11): −4.3 (2.97)*; Anxiety-Somatization Factor Effect Size Compound A vs Placebo (Cohen effect size) ([4]; Group 1, Day 11): −0.51; Anxiety-Somatization Factor mean score (SD), change from baseline ([4]; Group 1, Day 11): −1.6 (1.65); HAM-D6 Effect Size Compound A vs Placebo (Cohen effect size) ([4]; Group 1, Day 11): −1.22; HAM-D6 mean score (SD), change from baseline ([4]; Group 1, Day 11): −3.6 (2.33)**; HDRS17 Effect Size Compound A vs Placebo (Cohen effect size) ([4]; Group 1, Day 11): −0.64; HDRS17 mean score (SD), change from baseline ([4]; Group 1, Day 11): −5.1 (3.97); antidepressant efficacy as monotherapy ([4]; untreated subjects with MDD): has antidepressant efficacy
